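1) Cells in 96-well plates. 2) Compound, 48 h, 5 concentrations. 3) Linear interpolation between surrounding doses. 4) Unreached endpoint = highest concentration. The concentration for 50% growth inhibition is given as GI50.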 Calls of active or inactive are those of the source. Rule as the data show it: active = GI50 up to about 1.1 µM and inactive = higher.
What was measured:
Assay in all cases: NCI tumour cell line growth inhibition, 48 h
[1] = system: M19-MEL
[2] = system: CAKI-1
[3] = system: HL-60
[4] = system: SNB-75
[5] = system: OVCAR-4
[6] = system: SK-OV-3
[7] = system: M14
[8] = system: IGROV-1
[9] = system: ACHN
[10] = system: HOP-92
[11] = system: NCI-H23
[12] = system: UO-31
[13] = system: OVCAR-8
[14] = system: A549
[15] = system: RPMI-8226
[16] = system: UACC-62
[17] = system: MOLT-4
[18] = system: MDA-MB-435
[19] = system: BT-549
[20] = system: PC-3

Row | SMILES | GI50 [1] | GI50 [2] | GI50 [3] | GI50 [4] | GI50 [5] | GI50 [6] | GI50 [7] | GI50 [8] | GI50 [9] | GI50 [10] | GI50 [11] | GI50 [12] | GI50 [13] | GI50 [14] | GI50 [15] | GI50 [16] | GI50 [17] | GI50 [18] | GI50 [19] | GI50 [20]
1 | Cc1nnc2n1N=C(c1ccccc1)C(c1ccccc1)S2 (stereo unspecified) | 43.8 µM (inactive) | 64.9 µM (inactive) | 24.5 µM (inactive) | 17.8 µM (inactive) | 57.9 µM (inactive) | 27.2 µM (inactive) | 16.3 µM (inactive) | 97.5 µM (inactive) | 33.2 µM (inactive) | 60.4 µM (inactive) | 24.3 µM (inactive) | 51.3 µM (inactive) | 39.4 µM (inactive) | 45.4 µM (inactive) | 43.6 µM (inactive) | 39.5 µM (inactive) | 34.1 µM (inactive) | – | – | –
2 | C=C(/C=C/C=C(\CO)CCC=C(C)C)[C@H]1CCC2([C@H](CCCO)/C(=C(/C)C=O)CC[C@]2(C)O)[C@H]1O (stereo partly specified) | > 100 µM (inactive) | > 100 µM (inactive) | 56.1 µM (inactive) | 58.6 µM (inactive) | > 100 µM (inactive) | > 100 µM (inactive) | > 100 µM (inactive) | > 100 µM (inactive) | > 100 µM (inactive) | 3.56 µM (inactive) | > 100 µM (inactive) | – | > 100 µM (inactive) | 59 µM (inactive) | > 100 µM (inactive) | > 100 µM (inactive) | > 100 µM (inactive) | – | – | –
3 | CCCCOC(=O)C1C2CCC(O2)C1C(=O)OCCCC (stereo unspecified) | > 61.2 µM (inactive) | > 100 µM (inactive) | > 100 µM (inactive) | > 100 µM (inactive) | > 87.1 µM (inactive) | > 100 µM (inactive) | > 52.1 µM (inactive) | > 100 µM (inactive) | > 100 µM (inactive) | > 100 µM (inactive) | > 100 µM (inactive) | > 100 µM (inactive) | > 100 µM (inactive) | > 45.4 µM (inactive) | > 49.9 µM (inactive) | > 100 µM (inactive) | > 83.4 µM (inactive) | – | – | –
4 | Cc1cc2c(c3oc(C(O)(CO)C4CO4)cc(=O)c13)C(=O)c1c(O)cccc1C2=O (stereo unspecified) | < 0.01 µM (active) | 0.000463 µM (active) | 0.000377 µM (active) | 0.00122 µM (active) | 0.00158 µM (active) | 0.00188 µM (active) | 0.00168 µM (active) | 0.000266 µM (active) | 0.000278 µM (active) | 0.00013 µM (active) | – | 0.000154 µM (active) | 0.000569 µM (active) | 0.00149 µM (active) | 0.000313 µM (active) | 0.00119 µM (active) | 0.000145 µM (active) | 0.00121 µM (active) | 0.00296 µM (active) | 0.000841 µM (active)
5 | CCc1cccc(CC)c1NC(=O)C1=C(C)NC(C)=C(C(=O)Nc2c(CC)cccc2CC)C1c1ccc([N+](=O)[O-])cc1 | 21.3 µM (inactive) | 15.8 µM (inactive) | 16.4 µM (inactive) | 24.5 µM (inactive) | 12.3 µM (inactive) | 38.1 µM (inactive) | 17.5 µM (inactive) | 14.4 µM (inactive) | 27.4 µM (inactive) | 10.3 µM (inactive) | 22.8 µM (inactive) | 23.2 µM (inactive) | 20.4 µM (inactive) | 23 µM (inactive) | 11.4 µM (inactive) | – | 14.7 µM (inactive) | – | – | –
6 | O=S(=O)(Sc1ccc(Cl)cc1)c1ccc(Cl)cc1 | 17.9 µM (inactive) | 19.1 µM (inactive) | 13.6 µM (inactive) | 17.7 µM (inactive) | 20.6 µM (inactive) | 44.7 µM (inactive) | 17.5 µM (inactive) | 16.8 µM (inactive) | 16.1 µM (inactive) | 20.1 µM (inactive) | 16 µM (inactive) | 11.2 µM (inactive) | 16.1 µM (inactive) | 12.2 µM (inactive) | 22.6 µM (inactive) | 16.6 µM (inactive) | 9.79 µM (inactive) | – | – | –
7 | Nc1nc2c(-c3ccc([N+](=O)[O-])cc3)nnn2c2ccccc12 | > 100 µM (inactive) | > 100 µM (inactive) | > 100 µM (inactive) | > 10 µM (inactive) | > 100 µM (inactive) | 51.4 µM (inactive) | > 100 µM (inactive) | > 100 µM (inactive) | > 100 µM (inactive) | > 100 µM (inactive) | 37.2 µM (inactive) | > 100 µM (inactive) | 75.9 µM (inactive) | > 100 µM (inactive) | > 100 µM (inactive) | > 100 µM (inactive) | > 100 µM (inactive) | – | – | –
8 | Cc1c(NC(=S)NC(=O)c2ccc([N+](=O)[O-])cc2)c(=O)n(-c2ccccc2)n1C | > 100 µM (inactive) | > 100 µM (inactive) | > 100 µM (inactive) | > 100 µM (inactive) | > 100 µM (inactive) | > 100 µM (inactive) | > 100 µM (inactive) | > 100 µM (inactive) | > 100 µM (inactive) | > 100 µM (inactive) | > 100 µM (inactive) | > 100 µM (inactive) | > 100 µM (inactive) | > 100 µM (inactive) | > 100 µM (inactive) | > 100 µM (inactive) | > 100 µM (inactive) | – | – | –
9 | COC(=O)c1[nH]c(=S)[nH]c(=O)c1-c1ccc(Cl)cc1 | > 50 µM (inactive) | > 12.2 µM (inactive) | > 50 µM (inactive) | > 50 µM (inactive) | > 50 µM (inactive) | > 50 µM (inactive) | > 50 µM (inactive) | > 50 µM (inactive) | > 50 µM (inactive) | > 50 µM (inactive) | > 50 µM (inactive) | > 50 µM (inactive) | > 50 µM (inactive) | > 50 µM (inactive) | > 50 µM (inactive) | > 50 µM (inactive) | > 50 µM (inactive) | – | – | –
10 | Cc1cc(NC(=O)NC(=O)c2ccccc2[N+](=O)[O-])ccc1Oc1ncc(Cl)cn1 | 0.316 µM (active) | – | 0.0327 µM (active) | 0.0456 µM (active) | 14.1 µM (inactive) | 0.0575 µM (active) | 0.0782 µM (active) | 0.51 µM (active) | 1.88 µM (inactive) | – | 0.222 µM (active) | 0.0889 µM (active) | 0.303 µM (active) | 0.125 µM (active) | 0.223 µM (active) | 0.0551 µM (active) | 0.0702 µM (active) | 0.0115 µM (active) | 29.4 µM (inactive) | 0.0336 µM (active)

Source: ChEMBL document CHEMBL1201862, “PubChem BioAssay data set” (2004)
